Patent US20120252774A1, “STEROID TETROL SOLID STATE FORMS - 2” (priority 2010, published 2012)

Tests used:
[1] = tested on: ovalbumin (OVA) sensitized mouse model of asthma; assay: ovalbumin (OVA) sensitized mouse model of asthma; assay type: in vivo, BALB/c mice; conditions: for IL-13: once daily subcutaneous injection, dexamethasone 5 mg/kg, triol 1 mg/mouse; for level of IL-5 in lung tissue: vehicle value stated for day 38, subcutaneous treatment
Protocol: BALB/c mice were sensitized by intraperitoneal injection with OVA (in alum adjuvant) on days 1, and 12. Airways were challenged with OVA on days 28 and 30 by delivery of OVA to the lung, or with saline. On day 31, six mice were with saline and 6 mice challenged with OVA were sacrificed and lung tissue was analyzed. The remaining animals were divided into 6 groups (6 mice per group). Groups of the mice were treated once daily by subcutaneous injection as follows. Group 1 vehicle control (0.1% carboxymethyl cellulose, 0.9% saline, 2% Tween 80, 0.05% phenol). Group 2 dexamethasone (5 mg/kg). Group 3 androstane-3α,16α,17α-triol (1 mg/mouse). Three animals in groups 1-3 were sacrificed on day 35 at 1 hr after final treatment and the remaining 3 animals in groups 1-3 were sacrificed on day 38.

[2] = tested on: bone marrow-derived mast cells (BMMC); assay: mast cell stimulus-coupled degranulation (release of β-glucuronidase); assay type: cell-based, Balb/C mice
Protocol: In another protocol, a population of mast cells was cultivated from murine bone marrow as follows. Briefly, bone marrows from Balb/C mice were flushed from the femur using PBS and a 27 g needle. The cells were cultured in a mixture of ⅔ RPMI-1640 with 19% FBS and cells that secreted IL-3. The bone marrow cells were allowed to differentiate for 18-25 days in the IL-3-containing mixture before being used for experiments. Bone marrow cells cultured in this manner have a phenotype similar to mucosal mast cells and are referred to as bone marrow-derived mast cells (BMMC).
The homogeneity of the in vitro propagated mast cells was checked by conventional flow cytometric techniques and staining for cell-type specific markers. Between days 14 and 21 of propagation, mature mast cells were harvested and prepared for the test cultures. The objective was to assess of the effect of compounds such as dehydroepiandrosterone on mast cell stimulus-coupled degranulation. Prepared mast cells were dispensed into test culture wells at a density of 1×10^7 cells/mL. In control cultures, mast cells were induced to degranulate after cross linking of IgE receptors with IgE antigen-antibody complexes. In parallel groups of cultures mast cells were preincubated dehydroepiandrosterone at various doses followed by activation using anti-IgE antibody. There was no detectable degranulation of mast cells as measured by release of β-glucuronidase from cytosolic storage granules of the cells in the absence of the stimulus. Introduction of anti-Ig-E receptor antibody to the cultures caused a significant release of β-glucuronidase.

[3] = day 35, 1 hr after final treatment

Row | Structure (SMILES) | capacity to limit eosinophil burden and reduce key inflammatory mediators (IL-5, IL-13, cysteinyl leukotrienes) ([1]; OVA sensitized mice) | IL-13 increase (rebound) after treatment ([1]; compared with dexamethasone treated animals) | IL-13 [1, 3] [pg/mL] | IL-13 ([1]; day 38) [pg/mL] | level of IL-5 in lung tissue [1] [pg/mL] | inhibition at 100 µM ([2]; Mus musculus, BMMC, 100 μM, pre-exposed 5 to 10 minutes before activation with anti-IgE antigen-antibody complexes) [%] | inhibition of degranulation at lower levels ([2]; levels lower than 100 μM) | degranulation on exposure to compound alone ([2]; no stimulus, release of β-glucuronidase)
1 | C[C@]12CC[C@H]3[C@@H](CCC4C[C@H](O)CC[C@@]43C)[C@@H]1C[C@@H](O)[C@H]2O (stereo partly drawn) [androstane-3α,16α,17α-triol] | limit eosinophil burden and to reduce key inflammatory mediators | did not generate an IL-13 increase | 195 | 210 | 90 | – | – | –
2 | C[C@]12CC[C@H](O)CC1=CC[C@@H]1[C@@H]2CC[C@]2(C)C(=O)CC[C@@H]12 [dehydroepiandrosterone] | – | – | – | – | – | ~70 | proportionately less capacity to inhibit degranulation | no measurable degranulation
3 | C[C@@H]1C[C@H]2[C@@H]3CCC4=CC(=O)C=C[C@]4(C)[C@@]3(F)[C@@H](O)C[C@]2(C)[C@@]1(O)C(=O)CO [dexamethasone] | – | – | 340 | 390 | 145 | – | – | –
